This is an account of results in US20040029908A1, “Tricyclo compounds, a process for their production and a pharmaceutical composition containing the same” (FUJISAWA PHARMACEUTICAL CO., LTD., priority 1984, published 2004).

Molecules are shown by their SMILES. Converted amounts (≈) assume the structure as drawn.

The subject of data set [1] is mouse MLR (C57BL/6 responder cells, mitomycin C treated BALB/C stimulator cells). The data set can be described thus: Suppression of in vitro Mixed Lymphocyte Reaction (MLR), 3H-thymidine uptake. The following applies: for IC50: Lymphocyte, mouse MLR, 68 hours, 3H-thymidine. The class given is cell-based. How it is done: The MLR test was performed in microtiter plates, with each well containing 5 ×10^5 C57BL/6 responder cells (H-2^b ), 5 ×10^5 mitomycin C treated (25μg/ml mitomycin C at 37° C. for 30 minutes and washed three times with RPMI 1640 medium) BALB/C stimulator cells (H-2^d) in 0.2 ml RPMI 1640 medium supplemented with 10% fetal calf serum, 2mM sodium hydrogen carbonate, penicillin (50 unit/ml) and streptomycin (50 μg/ml) . The cells were incubated at 37 ° C. in humidified atmosphere of 5% carbon dioxide and 95% of air for 68 hours and pulsed with ^3H-thymidine (0.5 μCi) 4 hours before the cells were collected. The object compound of this invention was dissolved in ethanol and further diluted in RPMI 1640 medium and added to the cultures to give final concentrations of 0.1 μg/ml or less.

In data set [2] the test system is Aspergillus fumigatus IFO 5840. Kind of data set: Antimicrobial activity, serial agar dilution method in Sabouraud agar. The following applies: IFO5840, 30° C., 24 hours. It is filed as cell-based. The protocol: (§1) Antimicrobial activities of the tricyclo compounds (I) against various fungi were determined by a serial agar dilution method in a Sabouraud agar. Minimum inhibitory concentrations (MIC) were expressed in terms of μg/ml after incubation at 30° C. for 24 hours.
For orientation: Agar dilution tests growth on a series of plates holding different concentrations.

The test system of a further data set is Fusarium oxysporum. The description is as above. It is filed as cell-based. The following applies: 30° C., 24 hours. The protocol:
as §1

Another data set concerns ddY mice. Kind of data set: Acute toxicities in ddY mice by intraperitoneal injection. The class given is in vivo.
Data set [3] is described as follows: Solubility (physical and chemical properties). It is filed as physicochemical.
The mark [4] stands for this setting: ddY mice, intraperitoneal injection.
The mark [5] stands for this setting: hexane (n-hexane), petroleum ether.
[6] abbreviates: methanol, ethanol, acetone, ethyl acetate, chloroform, diethyl ether and benzene.

Consider `C=CC[C@@H]1/C=C(\C)C[C@H](C)C[C@H](OC)[C@H]2O[C@@](O)(C(=O)C(=O)N3CCC[C@H]3C(=O)O[C@H](/C(C)=C/[C@@H]3CC[C@@H](O)[C@H](OC)C3)[C@H](C)[C@@H](O)CC1=O)[C@H](C)C[C@@H]2OC` [FR-900525], for which the “Radioactivities (mean C.P.M. ± S.E.)” value in data set [1] (1.2 ng/ml) was 10103 ± 421 C.P.M; in data set [1] (2.5 ng/ml) it was 3564 ± 512 C.P.M; in data set [1] (5 ng/ml) it was 828 ± 369 C.P.M; in data set [1] (10 ng/ml), 372 ± 32 C.P.M; in data set [1] (100 ng/ml), 469 ± 56 C.P.M. Besides, the “Suppression (%)” value stood at 35.8% in data set [1] (1.2 ng/ml); 77.4% in data set [1] (2.5 ng/ml); 94.7% in data set [1] (5 ng/ml); 97.6% in data set [1] (10 ng/ml); 97.0% in data set [1] (100 ng/ml). For the same molecule, the midpoint of inhibition in data set [1], the IC50, lay at 0.00155 µg/mL (≈ 0.00196 µM). The MIC (in general, the lowest concentration that inhibits growth of the organism) in data set [2] was found to be 0.5 µg/mL (≈ 0.633 µM); against Fusarium oxysporum it was 1 µg/mL (≈ 1.27 µM). Further, the “the dead at dose of 100 mg/kg” value in the data set on ddY mice (setting [4]) is listed as “could not be observed”. The figures for the Solubility entry in data set [3] (setting [5]), in data set [3] (setting [6]) and in data set [3] (water) were “Sparingly Soluble”, “Soluble” and “Insoluble”, respectively.

`CCC1/C=C(\C)CC(C)CC(OC)C2OC(O)(C(=O)C(=O)N3CCCCC3C(=O)OC(/C(C)=C/C3CCC(O)C(OC)C3)C(C)C(O)CC1=O)C(C)CC2OC` (stereo not shown) [FR-900520, 17-Ethyl-1,14-dihydroxy-12-[2-(4-hydroxy-3-methoxycyclohexyl)-1-methylvinyl)-23,25-dimethoxy-13,19,21,27-tetramethyl-11,28-dioxa-4-azatricyclo-[^22.3.1.0^4,^9) octacos-18-ene-2,3,10,16-tetraone]: the “Radioactivities (mean C.P.M. ± S.E.)” value in data set [1] (0.25 ng/ml) is recorded as 14987 ± 1786 C.P.M; in data set [1] (0.500 ng/ml), 9434 ± 1546 C.P.M; in data set [1] (1 ng/ml), 2744 ± 527 C.P.M; in data set [1] (10 ng/ml), 515 ± 55 C.P.M; in data set [1] (100 ng/ml) it was 175 ± 16 C.P.M. Moreover, the “Suppression (%)” value in data set [1] (0.25 ng/ml) stood at 35.1%; in data set [1] (0.500 ng/ml) it was 59.2%; in data set [1] (1 ng/ml) it was 88.1%; in data set [1] (10 ng/ml) it was 97.8%; in data set [1] (100 ng/ml), 99.2%. Besides, half-maximal inhibition in data set [1] (IC50) required 0.00038 µg/mL (≈ 0.00048 µM). The molecule further registered an MIC in data set [2] of 0.1 µg/mL (≈ 0.126 µM). In the data set on ddY mice (mouse, in vivo, ip), the “the dead at dose of 100 mg/kg” value was “could not be observed”. Also, the Solubility result in data set [3] (setting [5]) is “Sparingly Soluble”; in data set [3] (setting [6]), “Soluble”; in data set [3] (water) it was “Insoluble”.

For `CO[C@H]1C[C@@H](C)C/C(C)=C/[C@@H](C)C(=O)C[C@H](O)[C@@H](C)[C@@H](/C(C)=C/[C@@H]2CC[C@@H](O)[C@H](OC)C2)OC(=O)[C@@H]2CCCCN2C(=O)C(=O)[C@]2(O)O[C@H]1[C@@H](OC)C[C@H]2C` [FR-900523], the “Radioactivities (mean C.P.M. ± S.E.)” value in data set [1] (0.25 ng/ml) came to 17721 ± 1083 C.P.M; in data set [1] (0.500 ng/ml), 11624 ± 395 C.P.M; in data set [1] (1 ng/ml) it was 5600 ± 399 C.P.M; in data set [1] (10 ng/ml), 156 ± 37 C.P.M; in data set [1] (100 ng/ml) it was 25 ± 12 C.P.M. In addition, the “Suppression (%)” value in data set [1] (0.25 ng/ml) worked out at 23.3%; in data set [1] (0.500 ng/ml), 49.7%; in data set [1] (1 ng/ml) it was 75.8%; in data set [1] (10 ng/ml), 99.3%; in data set [1] (100 ng/ml) it was 99.9%. For the same molecule, the IC50 (commonly the concentration needed to halve the response being measured) in data set [1] came out at 0.0005 µg/mL (≈ 0.000643 µM). In data set [2], this molecule returned an MIC of 0.3 µg/mL (≈ 0.386 µM). Also, the “the dead at dose of 100 mg/kg” value in the data set with ddY mice (setting [4]) is “could not be observed”. Further, the Solubility result is “Sparingly Soluble” in data set [3] (setting [5]), “Soluble” in data set [3] (setting [6]) and “Insoluble” in data set [3] (water).
